Source: patent US12077503B2, “Substituted cyclic amides and their use as herbicides” (FMC CORPORATION, priority 2015, dated 2024)
Like-named read-outs stand apart in the source and are kept apart here.

Tests used:
Assay in all cases: Test A preemergence
Format in all cases: in vivo
[1] = test system: ragweed (common ragweed, Ambrosia elatior); details: Ambrosia artemisiifolia, pre-emergence, 240 h; for pest or weed control at 125 g/ha: 125 g ai/ha; for pest or weed control at 500 g/ha: 500 g ai/ha
Method in brief: (§1)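 Treatment is preemergence as a directed soil spray after planting, or postemergence at the one- to two-leaf stage, with test chemical in a non-phytotoxic solvent mixture plus surfactant. Plants stay in the greenhouse about 10 d before visual injury scoring on a 0 to 100 scale versus untreated controls.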

Kochia (Kochia scoparia) = details: Bassia scoparia, pre-emergence, 240 h; for pest or weed control at 125 g/ha: 125 g ai/ha; for pest or weed control at 500 g/ha: 500 g ai/ha
Method in brief: as §1

[2] = test system: ryegrass, Italian (Italian ryegrass, Lolium multiflorum); details: Lolium multiflorum, pre-emergence, 240 h; for pest or weed control at 125 g/ha: 125 g ai/ha; for pest or weed control at 500 g/ha: 500 g ai/ha
Method in brief: as §1

[3] = test system: barnyardgrass (Echinochloa crus-galli); details: Echinochloa crus-galli, pre-emergence, 240 h; for pest or weed control at 125 g/ha: 125 g ai/ha; for pest or weed control at 500 g/ha: 500 g ai/ha
Method in brief: as §1

[4] = test system: giant foxtail (Setaria faberii); details: Setaria faberi, pre-emergence, 240 h; for pest or weed control at 125 g/ha: 125 g ai/ha; for pest or weed control at 500 g/ha: 500 g ai/ha
Method in brief: as §1

[5] = preemergence, visual injury rating about 10 d after treatment, 0 to 100 scale (0 no effect, 100 complete control), read-out: Ragweed plant response rating
[6] = preemergence, visual injury rating about 10 d after treatment, 0 to 100 scale (0 no effect, 100 complete control), read-out: Kochia plant response rating
[7] = preemergence, visual injury rating about 10 d after treatment, 0 to 100 scale (0 no effect, 100 complete control), read-out: Ryegrass, Italian plant response rating
[8] = preemergence, visual injury rating about 10 d after treatment, 0 to 100 scale (0 no effect, 100 complete control), read-out: Barnyardgrass plant response rating
[9] = preemergence, visual injury rating about 10 d after treatment, 0 to 100 scale (0 no effect, 100 complete control), read-out: Foxtail, Giant plant response rating
[10] = preemergence, 0 to 100 scale where 0 is no effect and 100 is complete control, read-out: Ragweed plant response rating
[11] = Preemergence, visual injury vs untreated controls after approximately 10 d, read-out: Ragweed plant response rating (0 to 100 scale where 0 is no effect and 100 is complete control)
[12] = preemergence, 0 to 100 scale where 0 is no effect and 100 is complete control, read-out: Kochia plant response rating
[13] = Preemergence, visual injury vs untreated controls after approximately 10 d, read-out: Kochia plant response rating (0 to 100 scale where 0 is no effect and 100 is complete control)
[14] = preemergence, 0 to 100 scale where 0 is no effect and 100 is complete control, read-out: Ryegrass, Italian plant response rating
[15] = Preemergence, visual injury vs untreated controls after approximately 10 d, read-out: Ryegrass, Italian plant response rating (0 to 100 scale where 0 is no effect and 100 is complete control)
[16] = preemergence, 0 to 100 scale where 0 is no effect and 100 is complete control, read-out: Barnyardgrass plant response rating
[17] = Preemergence, visual injury vs untreated controls after approximately 10 d, read-out: Barnyardgrass plant response rating (0 to 100 scale where 0 is no effect and 100 is complete control)
[18] = preemergence, 0 to 100 scale where 0 is no effect and 100 is complete control, read-out: Foxtail, Giant plant response rating
[19] = Preemergence, visual injury vs untreated controls after approximately 10 d, read-out: Foxtail, Giant plant response rating (0 to 100 scale where 0 is no effect and 100 is complete control)
[20] = preemergence, 0 to 100 scale where 0 is no effect and 100 is complete control, approx. 10 d, read-out: Ragweed plant response rating
[21] = preemergence, 0 to 100 scale where 0 is no effect and 100 is complete control, approx. 10 d, read-out: Kochia plant response rating
[22] = preemergence, 0 to 100 scale where 0 is no effect and 100 is complete control, approx. 10 d, read-out: Ryegrass, Italian plant response rating
[23] = preemergence, 0 to 100 scale where 0 is no effect and 100 is complete control, approx. 10 d, read-out: Barnyardgrass plant response rating
[24] = preemergence, 0 to 100 scale where 0 is no effect and 100 is complete control, approx. 10 d, read-out: Foxtail, Giant plant response rating

| SMILES | pest or weed control at 500 g/ha [3, 8] [%] | pest or weed control at 125 g/ha [1, 10] [%] | pest or weed control at 500 g/ha [1, 11] [%] | pest or weed control at 125 g/ha (Kochia (Kochia scoparia); [12]) [%] | pest or weed control at 500 g/ha (Kochia (Kochia scoparia); [13]) [%] | pest or weed control at 125 g/ha [2, 14] [%] | pest or weed control at 500 g/ha [2, 15] [%] | pest or weed control at 125 g/ha [3, 16] [%] | pest or weed control at 500 g/ha [3, 17] [%] | pest or weed control at 125 g/ha [4, 18] [%] | pest or weed control at 500 g/ha [4, 19] [%] | pest or weed control at 125 g/ha [1, 20] [%] | pest or weed control at 500 g/ha [1, 10] [%] | pest or weed control at 125 g/ha (Kochia (Kochia scoparia); [21]) [%] | pest or weed control at 500 g/ha (Kochia (Kochia scoparia); [12]) [%] | pest or weed control at 125 g/ha [2, 22] [%] | pest or weed control at 500 g/ha [2, 14] [%] | pest or weed control at 125 g/ha [3, 23] [%] | pest or weed control at 125 g/ha [4, 24] [%] | pest or weed control at 500 g/ha [4, 18] [%] | other results |
| --- | --- | --- | --- | --- | --- | --- | --- | --- | --- | --- | --- | --- | --- | --- | --- | --- | --- | --- | --- | --- | --- |
| CC(C)COc1cccc([C@H]2CN(C)C(=O)[C@@H]2C(=O)Nc2cccc(F)c2F)c1 [Compound 1029] | 90 | – | – | – | – | – | – | – | – | – | – | – | – | – | – | – | – | – | – | – | pest or weed control at 125 g/ha ([1]; Preemergence, visual injury rating after approximately 10 d, read-out: Ragweed plant response rating (0 to 100 scale, 0 is no effect, 100 is complete control)): 0%; pest or weed control at 500 g/ha [1, 5]: 0%; pest or weed control at 125 g/ha (Kochia (Kochia scoparia); Preemergence, visual injury rating after approximately 10 d, read-out: Kochia plant response rating (0 to 100 scale, 0 is no effect, 100 is complete control)): 0%; pest or weed control at 500 g/ha (Kochia (Kochia scoparia); [6]): 90%; pest or weed control at 125 g/ha ([2]; Preemergence, visual injury rating after approximately 10 d, read-out: Ryegrass, Italian plant response rating (0 to 100 scale, 0 is no effect, 100 is complete control)): 70%; pest or weed control at 500 g/ha [2, 7]: 90%; pest or weed control at 125 g/ha ([3]; Preemergence, visual injury rating after approximately 10 d, read-out: Barnyardgrass plant response rating (0 to 100 scale, 0 is no effect, 100 is complete control)): 90%; pest or weed control at 125 g/ha ([4]; Preemergence, visual injury rating after approximately 10 d, read-out: Foxtail, Giant plant response rating (0 to 100 scale, 0 is no effect, 100 is complete control)): 90%; pest or weed control at 500 g/ha [4, 9]: 90% |
| CCOc1ccc([C@H]2CN(C)C(=O)[C@@H]2C(=O)Nc2ccccc2F)cc1 [Compound 903] | – | 0 | 0 | 20 | 90 | 0 | 0 | 90 | 90 | 90 | 90 | – | – | – | – | – | – | – | – | – | – |
| CN1C[C@H](c2cccc(F)c2)[C@@H](C(=O)Nc2ccccc2F)C1=O [Compound 822] | – | 0 | 30 | 70 | 80 | 20 | 40 | 90 | 100 | 90 | 100 | – | – | – | – | – | – | – | – | – | – |
| Cc1c(F)cccc1NC(=O)[C@H]1C(=O)N(C)C[C@@H]1c1cc(F)c(F)c(F)c1 [Compound 867] | – | 0 | 30 | 50 | 70 | 60 | 60 | 90 | 90 | 90 | 90 | – | – | – | – | – | – | – | – | – | – |
| CCc1cc(CC)cc([C@H]2CNC(=O)[C@@H]2C(=O)Nc2cccc(F)c2F)c1 [Compound 1139] | – | – | – | – | – | – | – | – | – | – | – | 50 | 50 | 30 | 60 | 30 | 70 | 90 | 90 | 90 | pest or weed control at 500 g/ha [3, 16]: 90% |
| O=C1NC[C@H](c2ccc3c(c2)CCO3)[C@H]1C(=O)Nc1ccc(F)cc1F [Compound 902] | – | 0 | 0 | 0 | 0 | 0 | 20 | 40 | 90 | 30 | 90 | – | – | – | – | – | – | – | – | – | – |
| Cc1cc([C@H]2CN(C)C(=O)[C@@H]2C(=O)Nc2cccc(F)c2F)ccc1Cl [Compound 929] | 90 | – | – | 70 | – | – | – | 90 | – | 90 | – | – | – | – | – | – | – | – | – | – | pest or weed control at 500 g/ha [1, 5]: 30%; pest or weed control at 500 g/ha (Kochia (Kochia scoparia); [6]): 90%; pest or weed control at 500 g/ha [2, 7]: 80%; pest or weed control at 500 g/ha [4, 9]: 90% |
| CN1C[C@H](c2csc3ccccc23)[C@@H](C(=O)Nc2cccc(F)c2F)C1=O [Compound 1115] | 90 | – | – | – | – | – | – | – | – | – | – | 0 | 20 | 70 | 70 | 50 | 60 | 90 | 90 | 90 | – |
| O=C1NC[C@H](c2csc(C(F)F)c2)[C@H]1C(=O)Nc1cccc(F)c1F [Compound 1119] | 90 | – | – | – | – | – | – | – | – | – | – | 70 | 70 | 70 | 80 | 20 | 30 | 90 | 50 | 80 | – |
| CSc1ccccc1NC(=O)[C@H]1C(=O)N(C)CC[C@@H]1c1ccc(C)cc1 [Compound 1222] | – | – | – | – | – | – | – | – | – | – | – | – | 0 | – | 40 | – | 0 | – | – | 60 | pest or weed control at 125 g/ha ([1]; preemergence, visual injury rating, 0 to 100 scale where 0 is no effect and 100 is complete control, approximately 10 d, read-out: Ragweed plant response rating): 0%; pest or weed control at 125 g/ha (Kochia (Kochia scoparia); preemergence, visual injury rating, 0 to 100 scale where 0 is no effect and 100 is complete control, approximately 10 d, read-out: Kochia plant response rating): 0%; pest or weed control at 125 g/ha ([2]; preemergence, visual injury rating, 0 to 100 scale where 0 is no effect and 100 is complete control, approximately 10 d, read-out: Ryegrass, Italian plant response rating): 0%; pest or weed control at 125 g/ha ([3]; preemergence, visual injury rating, 0 to 100 scale where 0 is no effect and 100 is complete control, approximately 10 d, read-out: Barnyardgrass plant response rating): 0%; pest or weed control at 500 g/ha [3, 16]: 20%; pest or weed control at 125 g/ha ([4]; preemergence, visual injury rating, 0 to 100 scale where 0 is no effect and 100 is complete control, approximately 10 d, read-out: Foxtail, Giant plant response rating): 0% |
